According to patent US9156827B2, “Anticancer agent” (THE UNIVERSITY OF TOKYO, priority 2010, dated 2015):

Tests used:
[1] = system: Human acute myeloid leukemia MV4-11 cells; assay: Cell proliferation-suppressing activity, chromogenic method (Cell Counting Kit-8); assay type: cell-based; conditions: compound 1 μM, 48 hours, Cell Counting Kit-8, absorbance 450 nm
Protocol: Measurement of Cell Proliferation-Suppressing Activity (Chromogenic Method)
Human acute myeloid leukemia MV4-11 cells (2×10^4 cells) are inoculated on a 96-well microtiter plate. Each compound is added at a final concentration of 1 μM on the next day, and the cells are cultured for additional 48 hours. Absorbance is measured at 450 nm by using Cell Counting Kit-8 (Nacalai Tesque) to calculate the cell proliferation-suppressing activity.

[2] = biological target: pim-1 kinase (Homo sapiens, UniProt P11309); assay: Measurement of pim-1 kinase inhibitory activity (fluorescent substrate peptide, capillary electrophoresis); assay type: biochemical; conditions: 0.1 μM of each compound, 30 μM ATP, 1.5 μM substrate peptide, room temperature 2 hours
Sequence of pim-1 kinase (P11309 whole entry): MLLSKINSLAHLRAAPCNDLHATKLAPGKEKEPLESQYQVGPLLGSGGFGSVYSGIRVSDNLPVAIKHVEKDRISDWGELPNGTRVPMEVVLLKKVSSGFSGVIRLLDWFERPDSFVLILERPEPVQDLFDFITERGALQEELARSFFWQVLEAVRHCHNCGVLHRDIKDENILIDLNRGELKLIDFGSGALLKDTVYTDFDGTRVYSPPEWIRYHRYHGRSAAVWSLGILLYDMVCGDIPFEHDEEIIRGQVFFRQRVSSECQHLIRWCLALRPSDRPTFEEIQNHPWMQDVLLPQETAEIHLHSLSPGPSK
Protocol: Measurement of Pim-1 Kinase Inhibitory Activity
The result of the reaction was determined by quantifying the substrate and the phosphorylated reaction product separated by capillary electrophoresis based on difference in charges of the substances (EZ Reader II, Caliper Life Sciences, was used).

inhibition at 0.1 µM ([2]; Table 2) [%] | inhibition at 0.1 µM ([2]; Table 1) [%] | Structure (SMILES) | inhibition at 1 µM ([1]; Table 7) [%] | inhibition at 1 µM ([1]; Table 6) [%]
93 | – | O=C1/C(=C/c2n[nH]c3ncccc23)Oc2c1ccc(O)c2CN1CCNCC1 [Compound B68, (Z)-2-[(1H-Pyrazolo[3,4-b]pyridin-3-yl)methylene]-6-hydroxy-7-(piperazin-1-ylmethyl)benzofuran-3(2H)-one] | 52 | –
– | 66 | O=C1/C(=C/c2c[nH]c3ccccc23)Oc2c1ccc(OCc1ccccc1)c2CN1CCNCC1 [Compound A61, (Z)-2-[(1H-Indol-3-yl)methylene]-6-(benzyloxy)-7-(piperazin-1-ylmethyl)benzofuran-3(2H)-one] | – | 58
79 | – | O=C1/C(=C/c2n[nH]c3ccccc23)Oc2c(CN3CCNCC3)cccc21 [Compound B45, (Z)-2-[(1H-Indazol-3-yl)methylene]-7-(piperazin-1-ylmethyl)benzofuran-3(2H)-one] | 28 | –
36 | – | COc1ccc2c(c1C1CCNCC1)O/C(=C\c1n[nH]c3ccccc13)C2=O [Compound B53, (Z)-2-[(1H-Indazol-3-yl)methylene]-6-methoxy-7-(piperidin-4-yl)benzofuran-3(2H)-one] | 98 | –
– | 46 | O=C1/C(=C/c2c[nH]c3ccccc23)Oc2c1ccc(O)c2CN1CCCNCC1 [Compound A55, (Z)-7-[(1,4-Diazepan-1-yl)methyl]-2-[(1H-indol-3-yl)methylene]-6-hydroxybenzofuran-3(2H)-one] | – | 79
97 | – | COc1ccc2c(c1CCC1CCNCC1)O/C(=C\c1n[nH]c3ncccc13)C2=O [Compound B72, (Z)-2-[(1H-Pyrazolo[3,4-b]pyridin-3-yl)methylene]-6-methoxy-7-[2-(piperidin-4-yl)ethyl]benzofuran-3(2H)-one] | 93 | –
82 | – | COc1ccc2c(c1/C=C\CCN1CCNCC1)O/C(=C\c1n[nH]c3ccccc13)C2=O [Compound B50, (Z)-2-[(1H-Indazol-3-yl)methylene]-6-methoxy-7-[(Z)-4-(piperazin-1-yl)but-1-enyl]benzofuran-3(2H)-one] | 96 | –
70 | – | COc1ccc2c(c1C#CCCC1CCNCC1)O/C(=C\c1n[nH]c3ccccc13)C2=O [Compound B61, (Z)-2-[(1H-Indazol-3-yl)methylene]-6-methoxy-7-[4-(piperidin-4-yl)but-1-ynyl]benzofuran-3(2H)-one] | 97 | –
89 | – | COc1ccc2c(c1CCC1CCNCC1)O/C(=C\c1n[nH]c3ccccc13)C2=O [Compound B57, (Z)-2-[(1H-Indazol-3-yl)methylene]-6-methoxy-7-[2-(piperidin-4-yl)ethyl]benzofuran-3(2H)-one] | 99 | –
84 | – | COc1ccc2c(c1C#CC1CCNCC1)O/C(=C\c1n[nH]c3ccccc13)C2=O [Compound B55, (Z)-2-[(1H-Indazol-3-yl)methylene]-6-methoxy-7-(piperidin-4-ylethynyl)benzofuran-3(2H)-one] | 99 | –
49 | – | COc1ccc2c(c1Cc1c(C)n[nH]c1C)O/C(=C\c1n[nH]c3ccccc13)C2=O [Compound B73, (Z)-2-[(1H-Indazol-3-yl)methylene]-7-[(3,5-dimethyl-1H-pyrazol-4-yl)methyl]-6-methoxybenzofuran-3(2H)-one] | 81 | –
71 | – | COc1ccc2c(c1/C=C\CCC1CCNCC1)O/C(=C\c1n[nH]c3ccccc13)C2=O [Compound B62, (Z)-2-[(1H-Indazol-3-yl)methylene]-6-methoxy-7-[(Z)-4-(piperidin-4-yl)but-1-enyl]benzofuran-3(2H)-one] | 93 | –
94 | – | O=C1/C(=C/c2n[nH]c3ncccc23)Oc2c(CN3CCNCC3)cccc21 [Compound B70, (Z)-2-[(1H-Pyrazolo[3,4-b]pyridin-3-yl)methylene]-7-(piperazin-1-ylmethyl)benzofuran-3(2H)-one] | 77 | –
84 | – | COc1ccc2c(c1/C=C\CN1CCNCC1)O/C(=C\c1n[nH]c3ccccc13)C2=O [Compound B47, (Z)-2-[(1H-Indazol-3-yl)methylene]-6-methoxy-7-[(Z)-3-(piperizin-1-yl)prop-1-enyl]benzofuran-3(2H)-one (Z)-2-[(1H-Indazol-3-yl)methylene]-6-methoxy-7-[(Z)-3-(piperazin-1-yl)prop-1-enyl]benzofuran-3(2H)-one] | 99 | –
46 | – | COc1ccc2c(c1C#CC(C)(C)N1CCNCC1)O/C(=C\c1n[nH]c3ccccc13)C2=O [Compound B67, (Z)-2-[(1H-Indazol-3-yl)methylene]-6-methoxy-7-[3-methyl-3-(piperazin-1-yl)but-1-ynyl]benzofuran-3(2H)-one] | 96 | –
63 | – | COc1ccc2c(c1C#CCCN1CCNCC1)O/C(=C\c1n[nH]c3ccccc13)C2=O [Compound B49, (Z)-2-[(1H-Indazol-3-yl)methylene]-6-methoxy-7-[4-(piperazin-1-yl)but-1-ynyl]benzofuran-3(2H)-one] | 93 | –
– | 80 | O=C1/C(=C/c2c[nH]c3ccccc23)Oc2c(CN3CCNCC3)cccc21 [Compound A56, (Z)-2-[(1H-indol-3-yl)methylene]-7-(piperazin-1-ylmethyl)benzofuran-3(2H)-one] | – | 43
98 | – | COc1ccc2c(c1CC1CCNCC1)O/C(=C\c1n[nH]c3ccccc13)C2=O [Compound B54, (Z)-2-[(1H-Indazol-3-yl)methylene]-6-methoxy-7-(piperidin-4-ylmethyl)benzofuran-3(2H)-one] | 97 | –
– | 92 | O=C1/C(=C/c2c[nH]c3ncccc23)Oc2c(CN3CCNCC3)cccc21 [Compound A58, (Z)-2-[(1H-Pyrrolo[2,3-b]pyridin-3-yl)methylene]-7-(piperazin-1-ylmethyl)benzofuran-3(2H)-one] | – | 72
95 | – | COc1ccc2c(c1/C=C\C1CCNCC1)O/C(=C\c1n[nH]c3ccccc13)C2=O [Compound B56, (Z)-2-[(1H-Indazol-3-yl)methylene]-6-methoxy-7-[(Z)-2-(piperidin-4-yl)vinyl]benzofuran-3(2H)-one] | 99 | –
– | 28 | COc1ccc2c(c1CN1CCNCC1)O/C(=C\c1cn(S(=O)(=O)c3ccc(C)cc3)c3ccccc13)C2=O [Compound A57, (Z)-6-Methoxy-7-(piperazin-1-ylmethyl)-2-[(1-tosyl-1H-indol-3-yl)methylene]benzofuran-3(2H)-one] | – | 37
95 | – | COc1ccc2c(c1CN1CCNCC1)O/C(=C\c1n[nH]c3ncccc13)C2=O [Compound B69, (Z)-2-[(1H-Pyrazolo[3,4-b]pyridin-3-yl)methylene]-6-methoxy-7-(piperazin-1-ylmethyl)benzofuran-3(2H)-one] | 100 | –
73 | – | COc1ccc2c(c1/C=C/CC1CCNCC1)O/C(=C\c1n[nH]c3ccccc13)C2=O [Compound B65, (Z)-2-[(1H-Indazol-3-yl)methylene]-6-methoxy-7-[(E)-3-(piperidin-4-yl)prop-1-enyl]benzofuran-3(2H)-one] | 97 | –
95 | – | COc1ccc2c(c1CC1CCNCC1)O/C(=C\c1n[nH]c3ncccc13)C2=O [Compound B71, (Z)-2-[(1H-Pyrazolo[3,4-b]pyridin-3-yl)methylene]-6-methoxy-7-(piperidin-4-ylmethyl)benzofuran-3(2H)-one] | 100 | –
96 | – | COc1ccc2c(c1/C=C\CC1CCNCC1)O/C(=C\c1n[nH]c3ccccc13)C2=O [Compound B59, (Z)-2-[(1H-Indazol-3-yl)methylene]-6-methoxy-7-[(Z)-3-(piperidin-4-yl)prop-1-enyl]benzofuran-3(2H)-one] | 55 | –
75 | – | COc1ccc2c(c1CCCN1CCNCC1)O/C(=C\c1n[nH]c3ccccc13)C2=O [Compound B48, (Z)-2-[(1H-Indazol-3-yl)methylene]-6-methoxy-7-[3-(piperazin-1-yl)propyl]benzofuran-3(2H)-one] | 96 | –
90 | – | COc1ccc2c(c1C#CCC1CCNCC1)O/C(=C\c1n[nH]c3ccccc13)C2=O [Compound B58, (Z)-2-[(1H-Indazol-3-yl)methylene]-6-methoxy-7-[3-(piperidin-4-yl)prop-1-ynyl]benzofuran-3(2H)-one] | 94 | –
– | 92 | CCOc1ccc2c(c1CN1CCNCC1)O/C(=C\c1c[nH]c3ccccc13)C2=O [Compound A59, (Z)-2-[(1H-Indol-3-yl)methylene]-6-ethoxy-7-(piperazin-1-ylmethyl)benzofuran-3(2H)-one] | – | 95
95 | – | COc1ccc2c(c1CCCCC1CCNCC1)O/C(=C\c1n[nH]c3ccccc13)C2=O [Compound B63, (Z)-2-[(1H-Indazol-3-yl)methylene]-6-methoxy-7-[4-(piperidin-4-yl)butyl]benzofuran-3(2H)-one] | 95 | –

Structure (SMILES) | inhibition at 0.1 µM ([2]; Table 2) [%] | inhibition at 0.1 µM ([2]; Table 1) [%] | inhibition at 1 µM ([1]; Table 7) [%] | inhibition at 1 µM ([1]; Table 6) [%]
COc1ccc2c(c1C1=CCNCC1)O/C(=C\c1n[nH]c3ccccc13)C2=O [Compound B52, (Z)-2-[(1H-Indazol-3-yl)methylene]-6-methoxy-7-(1,2,3,6-tetrahydropyridin-4-yl)benzofuran-3(2H)-one] | 50 | – | 98 | –
